Results published in PubChem BioAssay AID179 (DTP/NCI, 2004).
pEC50, pIC50: −log10 of the molar value. Activity calls are given as the source filed them.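 The calls were made as follows: active = compounds giving half or more protection of infected cells from virus-caused growth loss, again on retest; inactive = the rest.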 Where a SMILES comes first, the peptide text is derived from it. Bridges are numbered along the chain shown (N, C = ends). [ ]: non-standard residue; d: D form. Aib = CC(C)(N)C(=O)O; βAla = NCCC(=O)O

System: CEM cells HIV-1 protection, formazan growth assay
Assay: NCI AIDS Antiviral Assay
Conditions: for pIC50: measured here: growth of uninfected CEM cells
Method in brief: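 Five concentrations of each compound were applied to infected and uninfected human CEM cells. Protection from HIV-1 was judged from growth measured with a soluble formazan assay.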

| SMILES | pEC50 | pIC50 | outcome |
| --- | --- | --- | --- |
| CC(/C=N\NC(=S)N(C)C)=N/NC(=S)N(C)C | < 5.70 | 6.46 |  |
| CCN(CC)CCS(=O)c1c2cc(OC)ccc2nc2ccc(OC)cc12 (stereo unspecified) | < 3.70 | 5.47 |  |
| CCOC(=O)Cc1cc(=O)[nH]n(-c2ccccc2)c1=O |  |  | inactive |
| CCN(CC)Cc1ccccc1CC(=O)N1c2ccccc2C(=O)Nc2cccnc21 | < 3.70 | < 3.70 |  |
| COc1ccc(NC(=S)NNC(=O)c2cc(-c3ccccc3)nc3ccccc23)cc1 | < 3.70 | 4.45 |  |
| COc1ccc(/C=C2\CCc3ccccc3C2=O)cc1OC | < 4.47 | < 4.47 |  |
| CC(C)(NO)/C(=N\O)c1ccccc1 | < 3.70 | < 3.70 |  |
| Cc1c2sc3ccccc3[nH]c2nc2[nH]c3ccccc3sc12 | < 4.42 | 4.83 |  |
| CN1N=CSC12C(=O)N(c1ccc(Cl)cc1)C(=O)N2c1ccc(Cl)cc1 (stereo unspecified) |  |  | inactive |
| CN(C)c1ccc(/C=N/N(Cc2ccccc2)c2ccccc2)cc1 | < 5.22 | < 5.22 |  |
| CC1(C)NC(=O)C(NC(=O)C(N)CC(=O)O)CCCCNC(=O)CCNC1=O (stereo unspecified) (H-DK[Aib][βAla]; lactam 2-C; configuration not given here) | < 3.70 | < 3.70 |  |
| CC(N)S(=O)(=O)O (stereo unspecified) | < 3.70 | 3.80 |  |
| CCOCC(=O)N(C)c1cccc2c3c(n(C)c12)CCCCC3 |  |  | inactive |
| Cc1sc2nc3n(c(=O)c2c1C)N=CN(c1ccc(Cl)cc1)C3 | 5.03 | 4.30 |  |
| CCOC(=O)C1SC(=Nc2ccc(Cl)cc2)N=C1C (stereo unspecified) | < 4.06 | < 4.06 |  |
| O=C(CC1(O)C(=O)Nc2c(Cl)cc(Cl)cc21)c1ccc(F)cc1 (stereo unspecified) | < 4.55 | < 4.55 |  |
| CC1CN2CC(C)OB(O1)OC(C)C2 (stereo unspecified) |  |  | inactive |
| CCCCOC(=O)NC(Nc1ccc(S(=O)(=O)Nc2ccc(OC)nn2)cc1)(C(F)(F)F)C(F)(F)F | < 3.70 | < 3.70 |  |
| CC(=O)ON1CCC(n2cc(C)c(=O)[nH]c2=O)C1 (stereo unspecified) | < 3.70 | < 3.70 |  |
| CCOC(=O)CN1CCC2CC1c1c([nH]c3ccccc13)C2c1cc2c(cc1OC)N(C)C1C(O)(C(=O)OC)C(OC(C)=O)C3(CC)C=CCN4CCC21C43 (stereo unspecified) | < 5.02 | < 5.02 |  |
| OCCN(CCO)c1ccc2c(C(F)(F)F)cc(C(F)(F)F)nc2n1 | < 3.70 | 3.83 |  |

| SMILES | pEC50 | pIC50 | outcome |
| --- | --- | --- | --- |
| COc1cc(OC)c2c(=O)c(OC)c(-c3ccc4c(c3)OCO4)oc2c1 | < 3.70 | < 3.70 |  |
| O=C1CCC(c2ccccc2)=NN1c1nsc2ccccc12 | < 4.07 | < 4.07 |  |
| CCCC1C(=O)N2C(N(C)C)=Nc3ccc(C)cc3N2C1=O (stereo unspecified) | < 3.08 | 3.34 |  |
| O=C1C(=O)N(c2ccc(Cl)cc2)C(=O)C(=O)C1c1nc2ccccc2s1 | < 4.73 | < 4.73 |  |
| C=C1CN(S(=O)(=O)c2ccc(C)cc2)CCCN(CCC(C)C)CCCN(S(=O)(=O)c2ccc(C)cc2)C1 | < 3.70 | 5.99 |  |
| COc1c(C)c(C/C=C(\C)CCCCO[Si](C(C)C)(C(C)C)C(C)C)c(OC)c2ccccc12 | < 3.70 | 4.27 |  |
| c1ccc(N/N=C2\NN=C(c3ccccc3)CS2)cc1 | < 4.18 | 4.45 |  |
| CCN(CC)c1ccc(/C=C2/C=Cc3ccccc32)cc1 | < 5.14 | < 5.14 |  |
| O=C(NCCCCCCCN1CCCCCC1)C1c2ccccc2-c2ccccc21 | < 3.70 | 4.40 |  |
| O=NNc1cnccn1 | < 2.77 | < 2.77 |  |
| CCN1CCC(O)(/C=C/c2ccc(C(C)C)cc2)C(C(=O)/C=C/c2ccc(C(C)C)cc2)C1 (stereo unspecified) | < 3.70 | 5.75 |  |
| O=c1oc2ccccc2cc1Cl | < 3.84 | < 3.84 |  |
| OC1C2C3CCC(C3)C2C(O)C2C3CCC(C3)C12 (stereo unspecified) | < 3.70 | < 3.70 |  |
| Cc1nc2sc(C(=O)c3ccc(Cl)cc3)c(N)c2c(-c2ccccc2Cl)c1C(=O)Nc1ccccc1 | < 3.70 | 5.52 |  |
| Cc1ccc2c(c1)C(=O)/C(=C\c1ccc(Cl)cc1)CCS2(=O)=O | < 3.70 | 5.78 |  |
| CC1=C[C@H]2C3=C(OC(C)(C)[C@H]2CC1)C(=O)c1c(cc(O)c(C)c1O)C3=O | < 3.74 | 4.46 |  |
| Cc1ccc(S(=O)(=O)N/N=C/c2oc(-c3cccc([N+](=O)[O-])c3)c(-c3cccc([N+](=O)[O-])c3)c2[N+](=O)[O-])cc1 | < 4.33 | < 4.33 |  |
| NC(=O)c1ccc(S(=O)(=NS(=O)(=O)c2ccccc2)c2ccc(C(N)=O)cc2)cc1 | < 3.53 | < 3.53 |  |
| C=C1N(c2nc(Cl)nc(Cl)n2)c2ccccc2C1(C)C | < 3.70 | 3.73 |  |
| C=CCOC(=O)Cn1cc(C)c(=O)[nH]c1=O | < 3.70 | < 3.70 |  |
| CC(=O)Oc1cc(OC(C)=O)c2c(C)cc(=O)oc2c1 | < 3.70 | 3.83 |  |

| SMILES | pEC50 | pIC50 | outcome |
| --- | --- | --- | --- |
| O=C(O)CCCCC1CCSS1 (stereo unspecified) | 3.73 | < 3.70 |  |
| O=[N+]([O-])c1ccc(C(Cl)S(=O)(=O)c2ccccc2)cc1 (stereo unspecified) | < 4.08 | 5.32 |  |
| FC(F)(F)c1ccc2nc(Nc3ccc(Cl)c(Cl)c3)c(-c3ccccc3)nc2c1 | < 4.92 | 5.09 |  |
| Cc1cc(C)nc(NS(=O)(=O)c2ccc(NC(=O)c3cccc4c(Nc5ccc(S(=O)(=O)N=C(N)N)cc5)c5ccc(Cl)cc5nc34)cc2)n1 | < 4.31 | < 4.31 |  |
| CCOC(=O)Cc1c(Cc2[nH]c(C(=O)OCc3ccccc3)c(CC(=O)OCC)c2CC(=O)OCC)[nH]c(C(=O)OCc2ccccc2)c1CC(=O)OCC | < 5.30 | < 5.30 |  |
| OCCN(CCO)c1ccc2c(-c3ccccc3)cc(N(CCO)CCO)nc2n1 | < 3.70 | 3.92 |  |
| NCCCNOCCCN | < 3.70 | < 3.70 |  |
| CSc1ccc(N2C(=O)C3c4[nH]c5ccccc5c4C4CCC(C(C)(C)C)CC4C3C2=O)cc1 (stereo unspecified) | < 5.66 | < 5.66 |  |
| COC1=CC(=O)c2c(O)c(CO)cc(O)c2C1=O |  |  | inactive |
| Nc1ncnc2c1nnn2C1C=CC(COS(N)(=O)=O)C1 (stereo unspecified) | < 3.70 | 4.36 |  |
| CCOP(=O)(OCC)/C(C#N)=C/c1cccc(Cl)c1 | < 3.65 | 3.76 |  |
| CC1=C2[C@H](c3ccccc3)C3C=CC2(c2ccccc23)N(C(=O)C(c2ccccc2)c2ccccc2)C1=O (stereo partly specified) | < 5.82 | < 5.82 |  |
| CC1(C)Cc2ccccc2C(C)(Cl)C(=O)N1 (stereo unspecified) | 3.72 | < 3.70 |  |
| Cc1cc(N(CCOS(C)(=O)=O)CCOS(C)(=O)=O)ccc1C=Nc1ccc(-c2nc(Cc3ccccc3)sc2C)cc1 | < 3.70 | 6.37 |  |
| CN(C)CC(CC1=C(CC(CN(C)C)N(C)C)CCC1)N(C)C (stereo unspecified) |  |  | inactive |
| COc1ccc(N2C(=O)C3c4[nH]c5ccc(Br)cc5c4C4CCC(C(C)(C)C)CC4C3C2=O)cc1 (stereo unspecified) |  |  | inactive |
| Nc1ccc(C(=O)N/C(=C\c2cccc([N+](=O)[O-])c2)c2nc3ccccc3[nH]2)cc1 |  |  | inactive |
| COc1cccc(/C=N/[N-]C(=O)c2ccncc2)c1[O-].COc1cccc(/C=N/[N-]C(=O)c2ccncc2)c1[O-].[O]=[U](=[O])([OH2+])[OH2+] | < 3.67 | 5.31 |  |
| CCCNC1=C2C[C@@H](C)C[C@@H](OC)[C@@H](OC(=O)CCCN)[C@H](C)/C=C(\C)[C@@H](OC(N)=O)[C@H](OC)/C=C\C=C(/C)C(=O)NC(=CC1=O)C2=O | < 3.70 | 4.94 |  |
| COc1ccc(/C=C/c2cnc3ccccc3n2)cc1OC | < 3.70 | 3.81 |  |
| CCOC(=O)/C(=C/c1cccc(C#N)c1)N(CC)CC | < 3.18 | 3.46 |  |

| SMILES | pEC50 | pIC50 | outcome |
| --- | --- | --- | --- |
| COC1/C=C/OC2(C)Oc3c(C)c(O)c4c(O)c(cc(OCC(=O)N(C)CCCCC(=O)O)c4c3C2=O)NC(=O)/C(C)=C/C=C/C(C)C(O)C(C)C(O)C(C)C(OC(C)=O)C1C (stereo unspecified) | < 3.70 | 4.72 |  |
| COc1ccc(N2C(=O)C3c4[nH]c5c(C)cccc5c4C4CCC(c5ccccc5)CC4C3C2=O)cc1 (stereo unspecified) | < 3.70 | 4.22 |  |
| Cc1cc(-n2c(/C=C/c3ccc(Cl)cc3)nc3cc(Cl)ccc3c2=O)on1 | < 4.30 | < 4.30 |  |
| COC(=O)c1ccccc1NC(=O)C(=O)CC(=O)CC(c1ccccc1)c1c(O)c2ccccc2oc1=O (stereo unspecified) | < 3.31 | 3.61 |  |
| CN(C)C=C1C(Cl)=C(C=O)CC(C=O)=C1Cl |  |  | inactive |
| C=CC1=C(C)C(/C=c2\[nH]/c(=C/c3[nH]c(CC4NC(=O)C(C)/C4=C\C)c(C)c3CCC(=O)O)c(CC(=O)O)c2C)=NC1=O (stereo unspecified) | < 2.57 | < 2.57 |  |
| Cc1ccc(S(=O)(=O)Nn2c(S)c(C#N)c(-c3ccc(N(C)C)cc3)c(C#N)c2=O)cc1 | < 3.70 | 5.11 |  |
| COc1ccc(C2OCC3C(c4ccc(OC)c(OC)c4)OCC23)cc1OC (stereo unspecified) | < 3.70 | 4.01 |  |
| Cc1cc2c(C(C)C)c(O)c(O)c(C=O)c2c(O)c1-c1c(C)cc2c(C(C)C)c(O)c(O)c(C=O)c2c1O | < 3.70 | 5.91 | inactive |
| CC1C(C)(C)C23CC12C1(OCCO1)C3Br (stereo unspecified) | < 3.70 | < 3.70 |  |
| N#CCCN(CCCN(C(=O)N(c1ccccc1)c1ccccc1)c1ccccc1)C(=O)Nc1ccccc1 | < 3.70 | 4.98 |  |
| O=C(C#Cc1ccccc1)Nc1ccccc1CC(c1c[nH]c2ccccc12)c1c[nH]c2ccccc12 | < 4.58 | 5.28 |  |
| C[n+]1c(-c2ccc(/C=N/NC(=O)c3ccc(C(=O)N/N=C/c4ccc(-c5cn6ccccc6[n+]5C)cc4)c(O)c3O)cc2)cn2ccccc21 | 5.08 | 5.06 |  |
| CC(C)(Oc1ccc(/C=C/C(=O)c2ccccc2)cc1)C(=O)Nc1c(Cl)cccc1Cl | < 5.08 | < 5.08 |  |
| O=C(O)[C@H]1CSCN1C(=O)c1ccccc1SSc1ccccc1C(=O)N1CSC[C@H]1C(=O)O | < 3.70 | < 3.70 |  |
| Cc1c2cc(Br)ccc2nc(CCl)[n+]1[O-] | < 4.70 | 6.01 |  |
| O=c1cc(NNc2ccccc2F)[nH]c(=O)[nH]1 | < 3.70 | 5.75 |  |
| CN(C)c1ccc(C(c2c(O)c3ccccc3oc2=O)c2c(O)c3ccccc3oc2=O)cc1 | < 3.70 | 4.56 |  |
| CC1=C(C)CC(C#N)(C#N)C(C#N)(C#N)C1 | < 3.70 | 4.72 |  |
